Source: ChEMBL document CHEMBL1155491, “Acylurea connected straight chain hydroxamates as novel histone deacetylase inhibitors: Synthesis, SAR, and in vivo antitumor activity” (Bioorg Med Chem Lett, 2010)
pIC50, pKi: −log10 of the molar value. Values after ≈ are worked out from the molar mass of the structure shown. Active and inactive are the calls of the source. The calls are words filed in the database; no cut-off is given here.

Legend:
[1] = Solubility at pH 7; assay type: physicochemical; settings: buffer
[2] = Octanol-water distribution coefficient, log D of the compound; assay type: physicochemical
HCT-116 = experiment: Antiproliferative activity against human HCT116 cells; assay type: functional, cell-based
NCI-H522 = experiment: Antiproliferative activity against human NCI-H522 cells; assay type: functional, cell-based
[3] = Clearance in mouse at 10 mg/kg, iv; assay type: ADME, organism-based; design: dose 10 mg/kg, route intravenous; settings: in vivo
Histone deacetylase 1 [4] = biological target: T1, Histone deacetylase 1 (Homo sapiens, UniProt Q13547)
T1 sequence (Q13547 whole entry): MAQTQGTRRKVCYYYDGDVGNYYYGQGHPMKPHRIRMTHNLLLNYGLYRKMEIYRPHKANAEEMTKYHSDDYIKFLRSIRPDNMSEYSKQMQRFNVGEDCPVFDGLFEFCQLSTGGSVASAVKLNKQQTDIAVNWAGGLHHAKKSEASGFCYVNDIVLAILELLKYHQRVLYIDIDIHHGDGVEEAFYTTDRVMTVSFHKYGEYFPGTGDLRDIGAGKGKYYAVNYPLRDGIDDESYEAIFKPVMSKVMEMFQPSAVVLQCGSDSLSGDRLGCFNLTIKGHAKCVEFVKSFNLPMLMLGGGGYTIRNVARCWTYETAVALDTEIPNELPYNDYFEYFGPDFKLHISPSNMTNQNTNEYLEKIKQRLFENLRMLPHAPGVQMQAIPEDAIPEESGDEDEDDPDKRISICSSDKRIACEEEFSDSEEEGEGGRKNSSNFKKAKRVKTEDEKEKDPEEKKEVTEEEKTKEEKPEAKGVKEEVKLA

[5] = Toxicity in human PC3 cells xenografted nude mouse; assay type: organism-based, PC-3; settings: in vivo
Histone deacetylase 1 [6] = biological target: T1, Histone deacetylase 1; remark: listed apart in the source
[7] = Half life in human liver microsome; assay type: ADME; settings: liver microsomes
PC-3 [8] = experiment: Antitumor activity against human PC3 cells xenografted in nude mouse assessed as inhibition of tumor growth at 200 mg/kg, ip administered for 21 days measured or day 22; assay type: functional; settings: PC-3, ip, route intraperitoneal, read-out: TGI
[9] = Thermodynamic solubility at pH 7.4; assay type: physicochemical; settings: buffer, read-out: Therm_solubility
Histone deacetylase 5 = Histone deacetylase 5 (Homo sapiens, UniProt Q9UQL6); experiment: Inhibition of HDAC5
Sequence of Histone deacetylase 5 (Q9UQL6 whole entry): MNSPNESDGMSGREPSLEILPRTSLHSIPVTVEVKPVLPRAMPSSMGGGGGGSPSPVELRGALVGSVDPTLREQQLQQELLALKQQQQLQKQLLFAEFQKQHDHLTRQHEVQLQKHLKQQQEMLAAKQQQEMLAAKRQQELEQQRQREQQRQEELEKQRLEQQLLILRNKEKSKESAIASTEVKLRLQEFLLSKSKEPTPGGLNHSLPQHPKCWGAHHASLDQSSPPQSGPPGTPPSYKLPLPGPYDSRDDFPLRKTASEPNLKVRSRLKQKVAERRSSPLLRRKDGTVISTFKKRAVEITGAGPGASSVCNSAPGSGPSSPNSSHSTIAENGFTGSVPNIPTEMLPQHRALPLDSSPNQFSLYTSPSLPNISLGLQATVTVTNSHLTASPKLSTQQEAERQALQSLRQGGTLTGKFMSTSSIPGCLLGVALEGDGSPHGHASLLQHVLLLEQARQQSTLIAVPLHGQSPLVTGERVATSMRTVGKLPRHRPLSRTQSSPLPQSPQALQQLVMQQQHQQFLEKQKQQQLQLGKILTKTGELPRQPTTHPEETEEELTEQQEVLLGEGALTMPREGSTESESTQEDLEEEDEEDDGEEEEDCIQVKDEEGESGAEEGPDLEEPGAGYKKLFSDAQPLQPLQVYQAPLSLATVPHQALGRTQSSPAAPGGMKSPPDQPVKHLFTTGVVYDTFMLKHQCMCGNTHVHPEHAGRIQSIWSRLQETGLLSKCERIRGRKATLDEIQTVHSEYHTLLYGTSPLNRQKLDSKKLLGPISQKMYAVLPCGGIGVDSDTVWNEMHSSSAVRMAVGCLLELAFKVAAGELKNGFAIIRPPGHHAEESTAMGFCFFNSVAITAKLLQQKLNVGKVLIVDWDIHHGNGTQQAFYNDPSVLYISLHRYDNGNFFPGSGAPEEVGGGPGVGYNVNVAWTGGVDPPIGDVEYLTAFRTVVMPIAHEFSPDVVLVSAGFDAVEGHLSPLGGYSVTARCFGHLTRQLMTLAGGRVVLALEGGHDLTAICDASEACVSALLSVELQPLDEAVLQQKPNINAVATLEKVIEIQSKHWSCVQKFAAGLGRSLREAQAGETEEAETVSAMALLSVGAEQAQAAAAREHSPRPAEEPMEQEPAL

Histone deacetylase 1 [10] = biological target: T1, Histone deacetylase 1; experiment: Inhibition of HDAC1 in human COLO205 cells assessed as induction of histone H3 acetylation at 10 uM by Western-immuno blotting; assay type: cell-based; settings: COLO 205
[11] = Half life in rat liver microsome; assay type: ADME; settings: liver microsomes
[12] = biological target: T2, Protein deacetylase HDAC6 (Homo sapiens, UniProt Q9UBN7); experiment: Inhibition of HDAC6
T2 sequence (Q9UBN7 whole entry): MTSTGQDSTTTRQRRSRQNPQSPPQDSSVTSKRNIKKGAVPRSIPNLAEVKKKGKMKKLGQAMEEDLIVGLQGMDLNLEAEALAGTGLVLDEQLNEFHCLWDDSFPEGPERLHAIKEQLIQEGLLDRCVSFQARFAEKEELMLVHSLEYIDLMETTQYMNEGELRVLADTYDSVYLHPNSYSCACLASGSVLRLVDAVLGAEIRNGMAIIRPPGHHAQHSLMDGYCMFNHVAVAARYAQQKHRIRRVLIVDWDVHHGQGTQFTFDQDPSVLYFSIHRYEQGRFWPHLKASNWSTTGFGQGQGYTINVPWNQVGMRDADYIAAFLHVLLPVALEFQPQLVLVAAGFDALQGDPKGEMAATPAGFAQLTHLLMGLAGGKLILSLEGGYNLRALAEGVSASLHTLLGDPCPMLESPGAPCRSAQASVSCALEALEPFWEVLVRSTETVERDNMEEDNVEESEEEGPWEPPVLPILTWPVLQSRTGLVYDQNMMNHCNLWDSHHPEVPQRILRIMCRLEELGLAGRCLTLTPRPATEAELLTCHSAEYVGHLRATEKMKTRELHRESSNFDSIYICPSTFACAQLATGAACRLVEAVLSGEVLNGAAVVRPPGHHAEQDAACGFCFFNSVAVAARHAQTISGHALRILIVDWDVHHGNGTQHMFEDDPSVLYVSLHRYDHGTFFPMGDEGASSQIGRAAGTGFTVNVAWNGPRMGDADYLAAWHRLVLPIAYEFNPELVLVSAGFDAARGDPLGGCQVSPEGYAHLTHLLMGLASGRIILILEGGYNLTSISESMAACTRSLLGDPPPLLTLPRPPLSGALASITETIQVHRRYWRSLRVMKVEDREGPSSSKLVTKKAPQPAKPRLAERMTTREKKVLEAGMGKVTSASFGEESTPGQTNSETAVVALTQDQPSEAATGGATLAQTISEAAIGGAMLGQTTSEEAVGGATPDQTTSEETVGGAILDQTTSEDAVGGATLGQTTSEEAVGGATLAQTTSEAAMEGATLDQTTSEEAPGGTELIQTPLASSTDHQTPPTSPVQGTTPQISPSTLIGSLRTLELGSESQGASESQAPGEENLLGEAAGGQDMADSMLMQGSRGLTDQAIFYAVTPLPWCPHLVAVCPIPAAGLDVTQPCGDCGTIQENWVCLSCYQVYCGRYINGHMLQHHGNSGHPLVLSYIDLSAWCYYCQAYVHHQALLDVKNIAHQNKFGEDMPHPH

[13] = Apparent permeability from apical to basolateral side of Caco-2 cells; assay type: ADME, cell-based; settings: human
Mus musculus = experiment: Toxicity in human HCT116 cells xenografted BALB/c mouse at 200 mg/kg, po; assay type: organism-based, HCT-116; design: dose 200 mg/kg, route oral; settings: in vivo
Histone deacetylase 2 = Histone deacetylase 2 (Homo sapiens, UniProt Q92769)
Sequence of Histone deacetylase 2 (Q92769 whole entry): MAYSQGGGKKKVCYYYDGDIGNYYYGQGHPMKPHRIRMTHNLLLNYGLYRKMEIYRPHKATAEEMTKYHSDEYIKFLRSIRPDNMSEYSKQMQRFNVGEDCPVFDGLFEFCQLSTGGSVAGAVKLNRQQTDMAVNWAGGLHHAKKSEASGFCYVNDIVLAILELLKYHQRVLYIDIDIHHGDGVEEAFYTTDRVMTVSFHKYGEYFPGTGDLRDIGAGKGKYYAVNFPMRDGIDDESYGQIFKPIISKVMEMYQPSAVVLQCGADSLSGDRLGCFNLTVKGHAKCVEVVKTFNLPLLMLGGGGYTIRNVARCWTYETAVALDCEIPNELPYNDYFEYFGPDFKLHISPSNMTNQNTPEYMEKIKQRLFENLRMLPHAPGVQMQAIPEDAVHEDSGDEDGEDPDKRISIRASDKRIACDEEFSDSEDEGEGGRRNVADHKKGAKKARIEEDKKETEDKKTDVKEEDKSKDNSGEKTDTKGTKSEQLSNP

[14] = Cmax in mouse plasma at 50 mg/kg, po; assay type: ADME, organism-based; design: dose 50 mg/kg, route oral
PC-3 [15] = experiment: Antiproliferative activity against human PC3 cells; assay type: functional, cell-based
[16] = Elimination half life in mouse at 10 mg/kg, iv; assay type: ADME, organism-based; design: dose 10 mg/kg, route intravenous; settings: in vivo, read-out: beta t1/2 (converted)
PC-3 [17] = experiment: animal or person; assay type: functional, Homo sapiens; settings: Mus musculus, PC-3, ip, route intraperitoneal, read-out: TGI
[18] = Half life in mouse liver microsome; assay type: ADME; settings: liver microsomes
Ramos = experiment: Antiproliferative activity against human Ramos cells; assay type: functional, cell-based
Histone deacetylase 9 = Histone deacetylase 9 (Homo sapiens, UniProt Q9UKV0); experiment: Inhibition of HDAC9
Sequence of Histone deacetylase 9 (Q9UKV0 whole entry): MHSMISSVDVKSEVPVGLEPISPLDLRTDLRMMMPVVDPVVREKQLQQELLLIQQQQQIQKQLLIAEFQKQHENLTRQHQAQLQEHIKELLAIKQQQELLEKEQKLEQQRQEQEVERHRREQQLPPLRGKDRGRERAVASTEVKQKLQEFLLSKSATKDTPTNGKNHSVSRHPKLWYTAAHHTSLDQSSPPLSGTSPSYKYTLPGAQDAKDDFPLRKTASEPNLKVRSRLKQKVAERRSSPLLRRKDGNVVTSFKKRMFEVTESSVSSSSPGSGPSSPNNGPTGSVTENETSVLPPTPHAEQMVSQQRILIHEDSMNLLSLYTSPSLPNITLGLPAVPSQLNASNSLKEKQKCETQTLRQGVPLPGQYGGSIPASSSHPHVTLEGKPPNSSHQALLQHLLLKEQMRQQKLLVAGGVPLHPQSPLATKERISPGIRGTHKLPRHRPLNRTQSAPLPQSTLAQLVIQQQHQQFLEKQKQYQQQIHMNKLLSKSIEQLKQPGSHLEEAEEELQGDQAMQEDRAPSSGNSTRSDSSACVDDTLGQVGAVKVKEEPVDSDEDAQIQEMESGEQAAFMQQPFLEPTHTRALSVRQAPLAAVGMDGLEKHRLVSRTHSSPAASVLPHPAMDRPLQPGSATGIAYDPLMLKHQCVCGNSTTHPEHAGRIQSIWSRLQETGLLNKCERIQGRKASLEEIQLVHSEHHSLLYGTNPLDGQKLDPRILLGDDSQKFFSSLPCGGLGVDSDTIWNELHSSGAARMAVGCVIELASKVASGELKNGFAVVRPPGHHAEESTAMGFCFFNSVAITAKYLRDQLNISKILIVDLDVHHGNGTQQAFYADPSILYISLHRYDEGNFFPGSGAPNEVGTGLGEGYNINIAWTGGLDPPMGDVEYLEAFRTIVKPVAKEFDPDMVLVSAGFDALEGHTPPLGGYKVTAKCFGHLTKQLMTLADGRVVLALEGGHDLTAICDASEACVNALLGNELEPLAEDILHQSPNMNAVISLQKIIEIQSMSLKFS

Histone deacetylase 4 = Histone deacetylase 4 (Homo sapiens, UniProt P56524); experiment: Inhibition of HDAC4
Sequence of Histone deacetylase 4 (P56524 whole entry): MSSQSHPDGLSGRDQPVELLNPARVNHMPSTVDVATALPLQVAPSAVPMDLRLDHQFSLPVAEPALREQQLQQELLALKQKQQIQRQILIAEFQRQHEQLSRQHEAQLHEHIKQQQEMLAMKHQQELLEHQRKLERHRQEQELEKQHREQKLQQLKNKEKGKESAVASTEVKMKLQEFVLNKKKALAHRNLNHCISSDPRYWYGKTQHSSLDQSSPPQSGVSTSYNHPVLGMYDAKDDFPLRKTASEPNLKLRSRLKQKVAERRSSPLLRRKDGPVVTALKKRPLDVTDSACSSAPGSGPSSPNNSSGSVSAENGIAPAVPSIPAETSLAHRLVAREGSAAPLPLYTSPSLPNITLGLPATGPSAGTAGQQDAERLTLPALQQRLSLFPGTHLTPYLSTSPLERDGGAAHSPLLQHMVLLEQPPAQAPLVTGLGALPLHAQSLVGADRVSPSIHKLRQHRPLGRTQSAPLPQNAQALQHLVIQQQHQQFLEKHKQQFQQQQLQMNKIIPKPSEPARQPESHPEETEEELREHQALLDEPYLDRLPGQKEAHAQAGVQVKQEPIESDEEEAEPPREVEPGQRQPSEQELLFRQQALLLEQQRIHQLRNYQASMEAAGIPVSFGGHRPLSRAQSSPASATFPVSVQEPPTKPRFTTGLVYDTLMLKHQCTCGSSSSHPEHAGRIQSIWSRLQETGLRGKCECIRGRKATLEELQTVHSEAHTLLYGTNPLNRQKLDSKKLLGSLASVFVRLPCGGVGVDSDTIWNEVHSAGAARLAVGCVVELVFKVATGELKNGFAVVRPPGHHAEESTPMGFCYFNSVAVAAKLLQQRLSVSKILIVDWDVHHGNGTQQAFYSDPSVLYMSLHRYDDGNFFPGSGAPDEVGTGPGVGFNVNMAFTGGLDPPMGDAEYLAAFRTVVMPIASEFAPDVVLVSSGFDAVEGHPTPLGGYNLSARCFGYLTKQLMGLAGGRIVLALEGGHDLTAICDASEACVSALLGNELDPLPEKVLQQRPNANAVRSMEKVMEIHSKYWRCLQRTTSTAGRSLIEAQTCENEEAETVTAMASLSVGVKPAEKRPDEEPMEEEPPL

Histone deacetylase 11 = biological target: T3, Histone deacetylase 11 (Homo sapiens, UniProt Q96DB2); experiment: Inhibition of HDAC11
T3 sequence (Q96DB2 whole entry): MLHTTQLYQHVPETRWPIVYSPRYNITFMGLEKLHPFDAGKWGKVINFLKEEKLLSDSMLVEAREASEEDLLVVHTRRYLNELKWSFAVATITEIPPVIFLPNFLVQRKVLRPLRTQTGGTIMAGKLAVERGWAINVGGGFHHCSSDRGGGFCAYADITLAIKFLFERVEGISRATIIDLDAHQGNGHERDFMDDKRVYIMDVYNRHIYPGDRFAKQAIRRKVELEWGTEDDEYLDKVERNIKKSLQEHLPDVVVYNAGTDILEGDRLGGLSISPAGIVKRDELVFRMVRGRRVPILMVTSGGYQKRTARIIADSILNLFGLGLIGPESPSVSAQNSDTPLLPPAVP

`O=C(CCCCCNC(=O)NC(=O)c1ccccc1)NO` showed a solubility [1] of 177 µM (≈ 51.9 µg/mL), a logD [2] of 0.75 and a pIC50 (HCT-116) of 5.80. For the same compound, the pIC50 (NCI-H522) was 6.30, the clearance [3] was 83.8 mL/min/kg and the pIC50 (Histone deacetylase 1 [4]) was 5.66. The MTD [5] was 200 mg/kg, the pIC50 (Histone deacetylase 1 [6]) was 7.28 and the pKi (Histone deacetylase 1 [6]) was 7.80. For the same compound, the half-life [7] was over 1 h, the inhibition in vivo at 200 mg/kg (PC-3 [8]) was 73% and the solubility thermodynamic [9] was 526 µg/mL (≈ 1790 µM). For the same compound, the pKi (Histone deacetylase 5) was 7.34, the Activity (Histone deacetylase 1 [10]) was “Active” and the half-life [11] was over 1 h. For the same compound, the pKi [12] was 8.15, the Papp A→B [13] was 3.12 ×10⁻⁶ cm/s and the Activity (Mus musculus) was “Toxic”. It also gave a pKi (Histone deacetylase 2) of 7.36, a Cmax [14] of 22.4 µM and a pIC50 (PC-3 [15]) of 6.13. The half-life [16] was 1.54 h, the inhibition in vivo at 160 mg/kg (PC-3 [17]) was 57% and the half-life [18] was over 0.5 h. The pIC50 (Ramos) was 6.34, the pKi (Histone deacetylase 9) was 7.26 and the pKi (Histone deacetylase 4) was 7.70. The pKi (Histone deacetylase 11) was 7.41.
